We go through six molecules from patent US8940286B2, “Urate transporter, as well as method and kit for evaluating urate transport-related disease factor and inflammation-related disease factor, and test sample and drug” (The University of Tokyo, priority 2009, dated 2015).

Where a name gives a salt, the structure may show the parent alone.

Data set [1] concerns the target T1, ABCG2 (Homo sapiens, UniProt Q9UNQ0).
T1 sequence (Q9UNQ0 1-655): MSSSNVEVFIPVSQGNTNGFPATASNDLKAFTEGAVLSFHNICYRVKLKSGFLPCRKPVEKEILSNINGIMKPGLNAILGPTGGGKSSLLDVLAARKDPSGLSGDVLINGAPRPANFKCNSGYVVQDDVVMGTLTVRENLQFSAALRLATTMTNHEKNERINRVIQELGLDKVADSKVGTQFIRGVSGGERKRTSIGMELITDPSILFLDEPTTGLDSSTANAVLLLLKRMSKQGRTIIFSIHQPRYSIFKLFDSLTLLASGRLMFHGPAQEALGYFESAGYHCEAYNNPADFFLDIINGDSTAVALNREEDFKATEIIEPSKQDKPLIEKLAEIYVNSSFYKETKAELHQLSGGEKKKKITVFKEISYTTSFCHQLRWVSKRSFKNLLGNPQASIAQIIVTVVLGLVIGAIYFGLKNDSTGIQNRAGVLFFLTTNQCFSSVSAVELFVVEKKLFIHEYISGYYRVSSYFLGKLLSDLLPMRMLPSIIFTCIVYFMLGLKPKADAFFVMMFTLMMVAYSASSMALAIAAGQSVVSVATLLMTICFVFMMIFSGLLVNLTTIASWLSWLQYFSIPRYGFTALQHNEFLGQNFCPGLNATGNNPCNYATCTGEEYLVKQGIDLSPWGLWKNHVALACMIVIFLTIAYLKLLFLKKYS
As to the kind of experiment: inhibition of ABCG2-mediated [3H]estrone-3-sulfate transport in membrane vesicles. The following applies: [3H]ES 500 nM, vesicle transport assay, HEK293 membrane vesicles. An excerpt:
Wild-type ABCG2 cDNA was inserted into the Nhe I site and Apa I site of pcDNA3.1(+) vector plasmid (Invitrogen, Carlsbad, Calif.), with a myc-tag sequence attached at the 5′ end. To prepare membrane vesicles, HEK293 cells were transiently transfected with an expression vector for ABCG2 or an empty vector using FuGENE6 (Roche Diagnostics, Indianapolis, Ind.). Forty-eight hours later, cells were harvested and the membrane vesicles were isolated using a standard method. The uptake study of [^3H]estrone-3-sulfate (ES, 500 nM) and [^14C]urate (28 μM) was performed.
Using membrane vesicles prepared from ABCG2-expressing cells, the inhibitory effect of urate on ABCG2-mediated transport of its typical substrate, ES (estrone-3-sulfate) was examined.
The inhibitory effect on the transport of [^3H]estrone-3-sulfate (ES, 500 nM), a typical substrate of ABCG2 was examined using the vesicle transport assay system.

The target of data set [2] is T1, ABCG2. Particulars: typical ABCG2 substrates, low capacity; read-out: Km value of transport by ABCG2; cited from earlier work.
Data set [3] has as its target T2, mouse Abcg2 (Mus musculus, UniProt Q7TMS5).
T2 construct: expressed in transfected cells; host or cells: HEK293 (transient transfection, myc-mAbcg2/pcDNA3.1(+)); cell membrane vesicles
T2 sequence (Q7TMS5 1-657): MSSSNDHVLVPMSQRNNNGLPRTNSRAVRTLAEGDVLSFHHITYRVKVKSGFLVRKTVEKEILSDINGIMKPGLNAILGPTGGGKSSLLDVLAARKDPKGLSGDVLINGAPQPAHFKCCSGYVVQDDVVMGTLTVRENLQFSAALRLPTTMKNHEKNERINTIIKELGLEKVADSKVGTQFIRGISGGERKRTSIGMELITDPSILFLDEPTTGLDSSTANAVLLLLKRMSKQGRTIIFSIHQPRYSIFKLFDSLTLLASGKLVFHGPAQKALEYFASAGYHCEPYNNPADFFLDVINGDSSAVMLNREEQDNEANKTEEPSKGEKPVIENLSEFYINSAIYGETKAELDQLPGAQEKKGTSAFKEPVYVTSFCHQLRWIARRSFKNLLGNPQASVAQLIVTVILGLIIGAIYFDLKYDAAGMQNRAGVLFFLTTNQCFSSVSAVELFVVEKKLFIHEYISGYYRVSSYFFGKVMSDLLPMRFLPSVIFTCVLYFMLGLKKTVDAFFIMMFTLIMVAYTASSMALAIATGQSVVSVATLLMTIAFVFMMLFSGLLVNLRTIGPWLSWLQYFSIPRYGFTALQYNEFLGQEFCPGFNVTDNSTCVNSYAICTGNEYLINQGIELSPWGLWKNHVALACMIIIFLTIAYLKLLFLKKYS
As to the kind of experiment: [14C]urate transport in mouse Abcg2-expressing membrane vesicles. The class given is biochemical. Particulars: uric acid 250 μM to 4 mM, cell membrane vesicles. The text has this: A mouse Abcg2 expression vector was constructed by amplifying a cDNA of mouse Abcg2 with a myc tag sequence attached to the N-terminus, integrating it into pGEM T-Easy Vector (Promega, Madison, Wis.), and then integrating it into a Not I site of a pcDNA3.1(+) vector via a restriction enzyme treatment.
Also, in order to confirm whether or not the mouse Abcg2 transports urate in the same manner as in human ABCG2, HEK293 cells into which the mouse myc-Abcg2 expression vector was transiently introduced were recovered, and cell membrane vesicles were prepared.
Transport experiments were performed using cell membrane vesicles and using radioisotope-labeled uric acid as a substrate. As a result, it was confirmed that the mouse Abcg2 also transports uric acid in the same manner as in human ABCG2. Also, transport experiments were performed in uric acid concentrations of 250 μM, 500 μM, 1 mM, 1.5 mM, 2 mM, and 4 mM, respectively. […] Whereby, it was shown that mouse Abcg2 is a high-capacity urate transporter which can function even in the presence of a high concentration of uric acid.

Substrate in data set [4]: O=c1[nH]c(=O)c2[nH]c(=O)[nH]c2[nH]1
As to the kind of experiment: ATP-dependent [14C]urate transport in ABCG2-expressing membrane vesicles. The class given is biochemical, human. The following applies: other: membrane vesicles from ABCG2-expressing HEK293 cells. As for the experimental part:
As shown in FIG. 3 (A), an ATP-dependent urate transport was detected in ABCG2-expressing vesicles but not in control vesicles. This is the first evidence of a direct high-capacity urate transport via ABCG2. Because of a mild inhibitory effect on the ES transport, urate was assumed to be a high-capacity substrate of ABCG2. Indeed, as shown in FIG. 3 (B), ABCG2-mediated urate transport scarcely reached saturation at concentrations of 1 mM or less.
Typical ABCG2 substrates, e.g., sulfate conjugates such as ES, 4-methylumbelliferone sulfate, and E3040 sulfate, are transported by ABCG2 with low capacity (Km value of about 20 μM).

On to `Cc1cn([C@H]2C[C@H](N=[N+]=[N-])[C@@H](CO)O2)c(=O)[nH]c1=O` [AZT, 3′-azido-3′-deoxythymidine], for which the “inhibitory effect on the transport of [3H]estrone-3-sulfate” value in data set [1] is “inhibition”.

As to `C[C@]12CC[C@@H]3c4ccc(OS(=O)(=O)O)cc4CC[C@H]3[C@@H]1CCC2=O` [ES, estrone-3-sulfate], the Km in data set [2] is ~20 µM. Also, the “inhibitory effect on the transport of [3H]estrone-3-sulfate” value in data set [1] is “inhibition”.

On to `CNc1nc2c(Cc3cccnc3)c(C)c(OS(=O)(=O)O)c(C)c2s1` [E3040 sulfate], for which, in data set [2], the Km is ~20 µM.

Regarding `O=c1[nH]c(=O)c2[nH]c(=O)[nH]c2[nH]1` [urate], the “saturability of urate transport via mouse Abcg2” value in data set [3] is recorded as “no saturability”.

For the molecule `Cc1cc(=O)oc2cc(OS(=O)(=O)O)ccc12` [4-methylumbelliferone sulfate], the Michaelis-Menten constant (Km) in data set [2] was ~20 µM.

B1: ABCG2 (Homo sapiens) (protein)
chain: T1 sequence (Q9UNQ0 1-655)
notes: expressed in transfected cells; host or cells: HEK293 (transient transfection, pcDNA3.1(+)); isolated membrane vesicles
Consider B1, for which, in data set [4], the Km amounted to 8240 ± 1440 µM and the Vmax is 6.96 ± 0.89 nmol/min/mg (protein).
